# Measured values from patent publication US20020035061A1, “COMPOSITIONS AND METHODS FOR TREATING INFECTIONS USING CATIONIC PEPTIDES ALONE OR IN COMBINATION WITH ANTIBIOTICS” (priority 1996, published 2002).
# Like-named read-outs stand apart in the source and are kept apart here.
# Key:
# Assay type in all cases: cell-based
# [1] = tested on: inherently resistant microorganisms; experiment: microbe, parasite or virus in culture; conditions: S. aureus MRSA; for Peptide MIC Alone: Piperacillin section; for FIC: peptide + Piperacillin
# bacterial isolates = experiment: microbe, parasite or virus in culture; conditions: for Peptide MIC Alone: Piperacillin section; for FIC: peptide + Piperacillin
# A. calcoaceticus = tested on: A. calcoaceticus
# K. pneumoniae = conditions: for MIC: K. pneumoniae strain KP001
# S. maltophilia = tested on: S. maltophilia
# S. aureus = tested on: S. aureus
# S. pyogenes = experiment: Agarose dilution assay (MIC)
# E. faecalis = tested on: E. faecalis
# E. cloacae = E. cloacae strain ECL006
# E. coli = tested on: E. coli
# S. marcescens = tested on: S. marcescens
# H. influenzae = experiment: Agarose dilution assay (MIC)
# S. epidermidis = tested on: S. epidermidis
# S. pneumoniae = experiment: Agarose dilution assay (MIC)
# P. aeruginosa = tested on: P. aeruginosa
# [2] = tested on: microorganisms with acquired resistance; experiment: microbe, parasite or virus in culture; conditions: for Peptide MIC Alone: Piperacillin section; for FIC: peptide + Piperacillin
# E. faecium = E. faecium strain EFM001
sequence,measurement,setting,value
ILKKWPWWPWRR [MBI 11G7CN],Peptide MIC + Piperacillin,[1],2 µg/mL
same,Peptide MIC Alone,[1],8 µg/mL
same,FIC,[1],0.25
same,Peptide MIC + Piperacillin,bacterial isolates; A. calcoaceticus 3,16 µg/mL
same,Piperacillin MIC + Peptide,bacterial isolates; A. calcoaceticus 3,32 µg/mL
same,Peptide MIC Alone,bacterial isolates; A. calcoaceticus 3,64 µg/mL
same,Peptide MIC + Piperacillin,bacterial isolates; H. influenzae SB1,4 µg/mL
same,Piperacillin MIC + Peptide,bacterial isolates; H. influenzae SB1,0.25 µg/mL
same,Peptide MIC Alone,bacterial isolates; H. influenzae SB1,>128 µg/mL
same,Peptide MIC + Piperacillin,bacterial isolates; P. aeruginosa 7,64 µg/mL
same,Piperacillin MIC + Peptide,bacterial isolates; P. aeruginosa 7,64 µg/mL
same,Peptide MIC Alone,bacterial isolates; P. aeruginosa 7,>128 µg/mL
same,Peptide MIC + Piperacillin,bacterial isolates; P. aeruginosa 23,1 µg/mL
same,Piperacillin MIC + Peptide,bacterial isolates; P. aeruginosa 23,64 µg/mL
same,Peptide MIC Alone,bacterial isolates; P. aeruginosa 23,>128 µg/mL
same,Peptide MIC + Piperacillin,bacterial isolates; S. aureus 18 MRSA,8 µg/mL
same,Piperacillin MIC + Peptide,bacterial isolates; S. aureus 18 MRSA,64 µg/mL
same,Peptide MIC Alone,bacterial isolates; S. aureus 18 MRSA,32 µg/mL
same,Peptide MIC + Piperacillin,bacterial isolates; S. aureus 19 MRSA,0.5 µg/mL
same,Piperacillin MIC + Peptide,bacterial isolates; S. aureus 19 MRSA,64 µg/mL
same,Peptide MIC Alone,bacterial isolates; S. aureus 19 MRSA,8 µg/mL
same,Peptide MIC + Piperacillin,bacterial isolates; S. marcescens 1,1 µg/mL
same,Piperacillin MIC + Peptide,bacterial isolates; S. marcescens 1,16 µg/mL
same,Peptide MIC Alone,bacterial isolates; S. marcescens 1,>128 µg/mL
same,FIC,bacterial isolates; A. calcoaceticus 3,0.50
same,FIC,bacterial isolates; H. influenzae SB1,0.52
same,FIC,bacterial isolates; P. aeruginosa 7,0.50
same,FIC,bacterial isolates; P. aeruginosa 23,0.50
same,FIC,bacterial isolates; S. aureus 18 MRSA,0.50
same,FIC,bacterial isolates; S. aureus 19 MRSA,0.56
same,FIC,bacterial isolates; S. marcescens 1,0.25
same,MIC,A. calcoaceticus; A. calcoaceticus strain AC001,128 µg/mL
same,MIC,K. pneumoniae,16 µg/mL
same,MIC,S. maltophilia; S. maltophilia strain SMA001,32 µg/mL
same,MIC,S. aureus; S. aureus strain SA012,2 µg/mL
same,MIC,S. pyogenes; S. pyogenes strain SPY006,16 µg/mL
same,MIC,E. faecalis; E. faecalis strain EFS002,32 µg/mL
same,MIC,E. cloacae,64 µg/mL
same,MIC,E. coli; E. coli strain ECO005,8 µg/mL
same,MIC,S. marcescens; S. marcescens strain SBSM1,>128 µg/mL
same,MIC,S. marcescens; S. marcescens strain SMS003,>128 µg/mL
same,MIC,H. influenzae; H. influenzae strain HIN002,>128 µg/mL
same,MIC,H. influenzae; H. influenzae strain SBHIN2,>128 µg/mL
same,MIC,S. epidermidis; S. epidermidis strain SE002,2 µg/mL
same,MIC,S. pneumoniae; S. pneumoniae strain SBSPN2,>128 µg/mL
same,MIC,S. pneumoniae; S. pneumoniae strain SPN044,>128 µg/mL
same,MIC,P. aeruginosa; P. aeruginosa strain PA006,>128 µg/mL
same,Peptide MIC + Piperacillin,[2]; A. calcoaceticus 3,32 µg/mL
same,Piperacillin MIC + Peptide,[2]; A. calcoaceticus 3,16 µg/mL
same,Peptide MIC Alone,[2]; A. calcoaceticus 3,64 µg/mL
same,Peptide MIC + Piperacillin,[2]; H. influenzae 1,64 µg/mL
same,Piperacillin MIC + Peptide,[2]; H. influenzae 1,16 µg/mL
same,Peptide MIC Alone,[2]; H. influenzae 1,>128 µg/mL
same,Peptide MIC + Piperacillin,[2]; P. aeruginosa 7,64 µg/mL
same,Piperacillin MIC + Peptide,[2]; P. aeruginosa 7,64 µg/mL
same,Peptide MIC Alone,[2]; P. aeruginosa 7,>128 µg/mL
same,Peptide MIC + Piperacillin,[2]; P. aeruginosa 23,1 µg/mL
same,Piperacillin MIC + Peptide,[2]; P. aeruginosa 23,64 µg/mL
same,Peptide MIC Alone,[2]; P. aeruginosa 23,>128 µg/mL
same,Peptide MIC + Piperacillin,[2]; S. maltophilia 2,16 µg/mL
same,Piperacillin MIC + Peptide,[2]; S. maltophilia 2,16 µg/mL
same,Peptide MIC Alone,[2]; S. maltophilia 2,64 µg/mL
same,Peptide MIC + Piperacillin,[2]; S. marcescens 1,1 µg/mL
same,Piperacillin MIC + Peptide,[2]; S. marcescens 1,16 µg/mL
same,Peptide MIC Alone,[2]; S. marcescens 1,>128 µg/mL
same,FIC,[2]; A. calcoaceticus 3,0.63
same,FIC,[2]; H. influenzae 1,0.75
same,FIC,[2]; P. aeruginosa 7,0.50
same,FIC,[2]; P. aeruginosa 23,0.50
same,FIC,[2]; S. maltophilia 2,0.75
same,FIC,[2]; S. marcescens 1,0.25
same,MIC,E. faecium,8 µg/mL
ILRWVWWVWRRK [MBI 11F4CN],Peptide MIC + Piperacillin,[1],2 µg/mL
same,Peptide MIC Alone,[1],4 µg/mL
same,FIC,[1],0.53
same,Peptide MIC + Piperacillin,bacterial isolates; E. cloacae 10,8 µg/mL
same,Piperacillin MIC + Peptide,bacterial isolates; E. cloacae 10,4 µg/mL
same,Peptide MIC Alone,bacterial isolates; E. cloacae 10,16 µg/mL
same,Peptide MIC + Piperacillin,bacterial isolates; H. influenzae SB1,0.125 µg/mL
same,Piperacillin MIC + Peptide,bacterial isolates; H. influenzae SB1,0.25 µg/mL
same,Peptide MIC Alone,bacterial isolates; H. influenzae SB1,>128 µg/mL
same,Peptide MIC + Piperacillin,bacterial isolates; P. aeruginosa 7,8 µg/mL
same,Piperacillin MIC + Peptide,bacterial isolates; P. aeruginosa 7,64 µg/mL
same,Peptide MIC Alone,bacterial isolates; P. aeruginosa 7,64 µg/mL
same,Piperacillin MIC + Peptide,bacterial isolates; P. aeruginosa 23,64 µg/mL
same,Peptide MIC Alone,bacterial isolates; P. aeruginosa 23,64 µg/mL
same,Peptide MIC + Piperacillin,bacterial isolates; S. aureus 19 MRSA,2 µg/mL
same,Piperacillin MIC + Peptide,bacterial isolates; S. aureus 19 MRSA,4 µg/mL
same,Peptide MIC Alone,bacterial isolates; S. aureus 19 MRSA,4 µg/mL
same,Peptide MIC + Piperacillin,bacterial isolates; S. maltophilia 2,0.5 µg/mL
same,Piperacillin MIC + Peptide,bacterial isolates; S. maltophilia 2,32 µg/mL
same,Peptide MIC Alone,bacterial isolates; S. maltophilia 2,16 µg/mL
same,Peptide MIC + Piperacillin,bacterial isolates; S. marcescens 1,0.5 µg/mL
same,Piperacillin MIC + Peptide,bacterial isolates; S. marcescens 1,64 µg/mL
same,Peptide MIC Alone,bacterial isolates; S. marcescens 1,>128 µg/mL
same,FIC,bacterial isolates; E. cloacae 10,0.52
same,FIC,bacterial isolates; H. influenzae SB1,0.50
same,FIC,bacterial isolates; P. aeruginosa 7,0.38
same,FIC,bacterial isolates; P. aeruginosa 23,0.31
same,FIC,bacterial isolates; S. aureus 19 MRSA,0.53
same,FIC,bacterial isolates; S. maltophilia 2,0.53
same,FIC,bacterial isolates; S. marcescens 1,0.25
same,"MIC, Peptide","A. calcoaceticus; A. calcoaceticus AC002, unmodified parent peptide",4 µg/mL
same,MIC,A. calcoaceticus; A. calcoaceticus strain AC003,16 µg/mL
same,"MIC, Peptide","K. pneumoniae; K. pneumoniae KP001, unmodified parent peptide",4 µg/mL
same,MIC,K. pneumoniae,8 µg/mL
same,"MIC, Peptide","S. maltophilia; S. maltophilia SMA002, unmodified parent peptide",16 µg/mL
same,MIC,S. maltophilia; S. maltophilia strain SMA006,16 µg/mL
same,"MIC, Peptide","S. aureus; S. aureus SA014, unmodified parent peptide",2 µg/mL
same,MIC,S. aureus; S. aureus strain SA007,1 µg/mL
same,MIC,S. pyogenes; S. pyogenes strain SPY005,32 µg/mL
same,"MIC, Peptide","E. faecalis; E. faecalis EFS008, unmodified parent peptide",2 µg/mL
same,MIC,E. faecalis; E. faecalis strain EFS004,8 µg/mL
same,MIC,E. cloacae,16 µg/mL
same,"MIC, Peptide","E. coli; E. coli ECO005, unmodified parent peptide",8 µg/mL
same,MIC,E. coli; E. coli strain ECO001,8 µg/mL
same,MIC,S. marcescens; S. marcescens strain SBSM1,>128 µg/mL
same,MIC,H. influenzae; H. influenzae strain HIN003,>128 µg/mL
same,MIC,S. epidermidis; S. epidermidis strain SE010,2 µg/mL
same,MIC,S. pneumoniae; S. pneumoniae strain SBSPN3,>128 µg/mL
same,"MIC, Peptide","P. aeruginosa; P. aeruginosa PA004, unmodified parent peptide",32 µg/mL
same,MIC,P. aeruginosa; P. aeruginosa strain PA020,32 µg/mL
same,Peptide MIC + Piperacillin,[2]; E. cloacae 10,8 µg/mL
same,Piperacillin MIC + Peptide,[2]; E. cloacae 10,4 µg/mL
same,Peptide MIC Alone,[2]; E. cloacae 10,16 µg/mL
same,Peptide MIC + Piperacillin,[2]; H. influenzae 1,64 µg/mL
same,Piperacillin MIC + Peptide,[2]; H. influenzae 1,16 µg/mL
same,Peptide MIC Alone,[2]; H. influenzae 1,>128 µg/mL
same,Peptide MIC + Piperacillin,[2]; P. aeruginosa 7,8 µg/mL
same,Piperacillin MIC + Peptide,[2]; P. aeruginosa 7,64 µg/mL
same,Peptide MIC Alone,[2]; P. aeruginosa 7,64 µg/mL
same,Peptide MIC + Piperacillin,[2]; P. aeruginosa 23,4 µg/mL
same,Piperacillin MIC + Peptide,[2]; P. aeruginosa 23,64 µg/mL
same,Peptide MIC Alone,[2]; P. aeruginosa 23,64 µg/mL
same,Peptide MIC + Piperacillin,[2]; S. maltophilia 2,4 µg/mL
same,Piperacillin MIC + Peptide,[2]; S. maltophilia 2,16 µg/mL
same,Peptide MIC Alone,[2]; S. maltophilia 2,16 µg/mL
same,Peptide MIC + Piperacillin,[2]; S. marcescens 1,4 µg/mL
same,Piperacillin MIC + Peptide,[2]; S. marcescens 1,16 µg/mL
same,Peptide MIC Alone,[2]; S. marcescens 1,>128 µg/mL
same,FIC,[2]; E. cloacae 10,0.52
same,FIC,[2]; H. influenzae 1,0.75
same,FIC,[2]; P. aeruginosa 7,0.38
same,FIC,[2]; P. aeruginosa 23,0.31
same,FIC,[2]; S. maltophilia 2,0.50
same,FIC,[2]; S. marcescens 1,0.08
